Structures can show the parent of a compound that is named as a salt.
Legend:
[1] = In vitro release studies, release kinetics and mechanism (dialysis sac); format: physicochemical; conditions: PBS pH 7.4, dialysis sac
Procedure: In vitro release studies were performed using dialysis sac (Sigma membrane, MW cut-off 13 kDa) method. Two milligram equivalent of rivastigmine-loaded nanoparticles were weighed and suspended in 2 mL of phosphate buffer saline (pH 7.4). Samples were withdrawn at predetermined time intervals and analyzed by HPLC method. In order to maintain sink conditions, an equal volume of PBS was replaced. The whole experiment was performed at […]. Based on the cumulative drug release vs. time profiles, the release kinetics models and mechanism were proposed (Akbuǧa and Bergişadi [1997]).

[2] = tested on: AChE; format: in vivo, rat; conditions: scopolamine model, listed as pure drug
Procedure: Samples were then centrifuged at 10,000 rpm for 5 min, and plasma was stored at − 70 °C until analysis.
Thiocholine, which was produced due to the hydrolysis of acetylthiocholine (ACTI) by AChE, was estimated by making it react with 5, 5′-dithiobis-(2-nitrobenzoic acid) (DTNB). The chemical, 5-thio-2-nitrobenzoic acid (yellow color complex), which was released due to reaction was estimated using a UV spectrophotometer in the range of 400 to 420 nm with maximal absorption at 412 nm. One hundred microliter of blank rat plasma was taken in the polypropylene vials. To this, 2.8 mL of phosphate buffer (0.01 M, pH 8) and 100 µL of DTNB reagents were added and mixed well. Then, 20 µL of ACTI (26.01 mg/mL of Milli-Q water) was added to the contents of the cuvette to initiate the enzyme reaction. The reaction kinetics was monitored at different time intervals (0, 1, 2, 3, 4 min), and absorbance was noted. 2.8 mL buffer (0.01 M, pH 8.0) and 100 µL DTNB reagent served as blank. Concentrations in the range of 0.03–30 mM were prepared using methanol as a diluent. […] Substrate concentration and reaction time were optimized such that sufficient concentration of ACTI is available to bind with the enzyme to initiate the reaction and also it should not saturate the enzyme. In this study, varying concentrations (100–1000 µM) of ACTI were prepared, and reaction kinetics were observed. In general, the maximum time should be either 2–4 min or even less, because the enzyme might undergo degradation. In the present study, up to 4 min of reaction kinetics (changing the optical density or absorbance) was measured. One unit of AChE activity is defined as the number of µmol of acetylthiocholine iodide hydrolyzed per minute. The specific activity of AChE is expressed in moles/min/mg of protein (Kaur et al. [2015]): AChEActivity=(abs.permin×1000×volumeofenzyme)/(13600×TRM)AChEActivity=abovevalue×1000(nanomolar/min/mL)
where 13,600 = molar extinction coefficient of DTNB: 1000-molar conversion factor: (TRM) total reaction mixture 3 mL: volume of enzyme (0.1 mL).

[3] = set-up: method as in Jann [2000]; conditions: ref Jann [2000]; cited from earlier work
[4] = set-up: method as in Jann [2000]; conditions: ref Jann [2000], cited from earlier work
[5] = tested on: cholinesterase enzyme; set-up: method as in Emerich and Walsh [1990]; conditions: 2.5 mg/kg via the oral route; ref Emerich and Walsh [1990]; cited from earlier work
[6] = set-up: method as in Arumugam [2009]; conditions: male vs female rats; ref Arumugam [2009]; cited from earlier work

Question: With `CCN(C)C(=O)Oc1cccc([C@H](C)N(C)C)c1` [Rivastigmine, Rivastigmine hydrogen tartrate] as the compound, how does the “drug released within 2 h” value [1] read?
Answer: The value was 85%.

Question: What about the “peak AChE inhibition (Emax, maximum inhibition) in plasma” value [2] of the same compound?
Answer: The value was 71.95%.

Question: And the “log P predicted” value [3]?
Answer: The value was 2.45.

Question: What about the bioavailability ([4]; oral) of the same compound?
Answer: The bioavailability was 36–40%.

Question: And the plasma elimination half-life [4]?
Answer: The plasma elimination half-life was 1.5 h.

Question: What about the “inhibition of the cholinesterase enzyme in the cortex and hippocampus” value [5] of the same compound?
Answer: Its value is 20–30%.

Question: And the “elimination rate constant, male rats versus female rats” value [6]?
Answer: Its value is 2.5 fold.

Reference: PMC8298375 (Naunyn-Schmiedeberg's Archives of Pharmacology, 2021)
